Experiments:
in vitro = settings: human, Caco-2, pH 7.4
Summary of the method: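 Caco-2 monolayers, checked by TEER with Lucifer yellow as marker, were dosed with 10 μM compound in HBSS pH 7.4 in A-to-B and B-to-A directions. Incubation was 90 min at 37° C, in duplicate. Samples were quantified by LC-MS/MS and Papp calculated.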

[1] = biological target: T1, Jurkat cells expressing CXCR4 (Homo sapiens, UniProt P61073); assay: Chemokine (CXCL12-AF647) binding inhibition assay; settings: CXCL12-AF647 25 ng/mL, read-out: IC50 CXCL-12 binding Jurkat
T1 construct: endogenous in cells; host or cells: Jurkat
Summary of the method: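 Cells in HBSS, 20 mM HEPES, 0.2% BSA, pH 7.4, preincubated 15 min at room temperature with compound, then 25 ng/mL CXCL12-AF647 for 30 min. After washing and paraformaldehyde fixation, bound ligand read by flow cytometry; percent inhibition calculated from MFI relative to unlabeled and ligand-only controls.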

[2] = biological target: T2, CXCR-4 transfected U87 cell line (U87.CXCR4) (Homo sapiens, UniProt P61073); assay: Intracellular CXCL-12-induced calcium mobilization assay (FLIPR); type: cell-based; settings: U87.CXCR4 cells; CXCL-12 25-50 ng/mL; compound added 15 min before; read-out: IC50 CXCL-12 Ca^2+ flux U87.CXCR4+
T2 construct: expressed in transfected cells; host or cells: U87 (U87.CXCR4)
Summary of the method: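 U87 cells stably expressing human CXCR4, loaded with Fluo-2 AM (4 μM final) for 45 min at 37 °C in HBSS/20 mM HEPES/0.2% BSA, pH 7.4. Calcium flux triggered by CXCL-12 (25-50 ng/mL) was followed by FLIPR fluorescence over time at 37 °C.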

T1 sequence (P61073 whole entry): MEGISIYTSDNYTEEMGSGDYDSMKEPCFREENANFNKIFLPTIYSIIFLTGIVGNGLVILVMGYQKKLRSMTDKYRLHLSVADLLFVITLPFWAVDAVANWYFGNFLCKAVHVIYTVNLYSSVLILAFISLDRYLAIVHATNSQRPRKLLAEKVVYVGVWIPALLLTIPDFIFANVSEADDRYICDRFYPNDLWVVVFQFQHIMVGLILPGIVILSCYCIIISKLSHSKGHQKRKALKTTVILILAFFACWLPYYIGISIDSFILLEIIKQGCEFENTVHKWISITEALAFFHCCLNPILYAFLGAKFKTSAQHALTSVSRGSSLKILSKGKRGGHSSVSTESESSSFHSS
T2 sequence (P61073 whole entry): as above

Cc1cccnc1[C@@H]1CCC[C@H](c2nc3ccccc3n2Cc2ccccc2-n2cccn2)N1 [I-161]
Papp A→B at 90 min, 10 μM (in vitro): > 300 nm/s
Papp B→A at 90 min, 10 μM (in vitro): > 300 nm/s
efflux ratio at 90 min, 10 μM (in vitro): 0.1 to 10
IC50 [1]: 100 to 1000 nM
IC50 [2]: ≥ 1000 nM

Cc1cccnc1[C@@H]1CCC[C@H](c2nc3cccc(N4CCN(c5ccccn5)CC4)c3[nH]2)N1 [I-162]
Papp A→B at 90 min, 10 μM (in vitro): 100 to 300 nm/s
Papp B→A at 90 min, 10 μM (in vitro): 100 to 300 nm/s
efflux ratio at 90 min, 10 μM (in vitro): 0.1 to 10
IC50 [1]: 100 to 1000 nM
IC50 [2]: ≥ 1000 nM

Cc1cccnc1[C@@H]1CCC[C@H](c2nc3ccccc3[nH]2)N1CCc1cn2ccccc2n1 [I-164]
Papp A→B at 90 min, 10 μM (in vitro): 1 to 100 nm/s
Papp B→A at 90 min, 10 μM (in vitro): 100 to 300 nm/s
efflux ratio at 90 min, 10 μM (in vitro): 0.1 to 10
IC50 [1]: 0.01 to 100 nM
IC50 [2]: 0.01 to 100 nM

Cc1cccnc1[C@@H]1CCC[C@H](c2nccn2CCCN(C)C)N1C [I-165, N,N-dimethyl-3-(2-((2R,6S)-1-methyl-6-(3-methylpyridin-2-yl)piperidin-2-yl)-1H-imidazol-1-yl)propan-1-amine]
Papp A→B at 90 min, 10 μM (in vitro): 1 to 100 nm/s
Papp B→A at 90 min, 10 μM (in vitro): 100 to 300 nm/s
efflux ratio at 90 min, 10 μM (in vitro): 0.1 to 10
IC50 [1]: 0.01 to 100 nM
IC50 [2]: 100 to 1000 nM

Cc1cccnc1[C@@H]1CCC[C@H](c2ncc[nH]2)N1Cc1ccccc1-n1cccn1 [I-166]
Papp A→B at 90 min, 10 μM (in vitro): 100 to 300 nm/s
Papp B→A at 90 min, 10 μM (in vitro): 100 to 300 nm/s
efflux ratio at 90 min, 10 μM (in vitro): 0.1 to 10
IC50 [1]: 100 to 1000 nM
IC50 [2]: ≥ 1000 nM

Cc1cccnc1[C@@H]1CCC[C@H](c2nccn2Cc2ccccc2-n2cccn2)N1 [I-167]
Papp A→B at 90 min, 10 μM (in vitro): > 300 nm/s
Papp B→A at 90 min, 10 μM (in vitro): > 300 nm/s
efflux ratio at 90 min, 10 μM (in vitro): 0.1 to 10
IC50 [1]: ≥ 1000 nM
IC50 [2]: ≥ 1000 nM

Cc1cccnc1[C@@H]1CCC[C@H](c2nccn2C2CCN(C)CC2)N1C [I-168]
Papp A→B at 90 min, 10 μM (in vitro): 1 to 100 nm/s
Papp B→A at 90 min, 10 μM (in vitro): 100 to 300 nm/s
efflux ratio at 90 min, 10 μM (in vitro): 0.1 to 10
IC50 [1]: 0.01 to 100 nM
IC50 [2]: 0.01 to 100 nM

CN(C)CCCn1ccnc1[C@H]1CCC[C@@H](c2ncccc2Cl)N1C [I-169]
Papp A→B at 90 min, 10 μM (in vitro): 1 to 100 nm/s
Papp B→A at 90 min, 10 μM (in vitro): > 300 nm/s
efflux ratio at 90 min, 10 μM (in vitro): 0.1 to 10
IC50 [1]: 0.01 to 100 nM
IC50 [2]: 100 to 1000 nM

Cc1cccnc1[C@@H]1CCC[C@H](c2nccn2C2CCN(C)CC2)N1 [I-171]
Papp A→B at 90 min, 10 μM (in vitro): 1 to 100 nm/s
Papp B→A at 90 min, 10 μM (in vitro): 100 to 300 nm/s
efflux ratio at 90 min, 10 μM (in vitro): 0.1 to 10
IC50 [1]: 0.01 to 100 nM
IC50 [2]: ≥ 1000 nM

CN1CCC(n2ccnc2[C@H]2CCC[C@@H](c3ncccc3Cl)N2)CC1 [I-172]
Papp A→B at 90 min, 10 μM (in vitro): 100 to 300 nm/s
Papp B→A at 90 min, 10 μM (in vitro): 100 to 300 nm/s
efflux ratio at 90 min, 10 μM (in vitro): 0.1 to 10
IC50 [1]: ≥ 1000 nM
IC50 [2]: ≥ 1000 nM

Cc1cc(F)cnc1[C@@H]1CCC[C@H](c2nccn2C2CCN(C)CC2)N1 [I-173]
Papp A→B at 90 min, 10 μM (in vitro): 100 to 300 nm/s
Papp B→A at 90 min, 10 μM (in vitro): 100 to 300 nm/s
efflux ratio at 90 min, 10 μM (in vitro): 0.1 to 10
IC50 [1]: ≥ 1000 nM
IC50 [2]: ≥ 1000 nM

Cc1cccnc1[C@@H]1CCC[C@H](c2nccn2C2CCN(C3CC3)CC2)N1C [I-174]
Papp A→B at 90 min, 10 μM (in vitro): 100 to 300 nm/s
Papp B→A at 90 min, 10 μM (in vitro): 100 to 300 nm/s
efflux ratio at 90 min, 10 μM (in vitro): 0.1 to 10
IC50 [1]: 0.01 to 100 nM
IC50 [2]: 100 to 1000 nM

Cc1cccnc1[C@@H]1CCC[C@H](c2nccn2CC2CCN(C)CC2)N1 [I-175]
Papp A→B at 90 min, 10 μM (in vitro): 1 to 100 nm/s
Papp B→A at 90 min, 10 μM (in vitro): 100 to 300 nm/s
efflux ratio at 90 min, 10 μM (in vitro): 10 to 30
IC50 [1]: 0.01 to 100 nM
IC50 [2]: 100 to 1000 nM

Cc1cccnc1[C@@H]1CCC[C@H](c2nccn2CCn2cccn2)N1 [I-176]
Papp A→B at 90 min, 10 μM (in vitro): 100 to 300 nm/s
Papp B→A at 90 min, 10 μM (in vitro): > 300 nm/s
efflux ratio at 90 min, 10 μM (in vitro): 0.1 to 10
IC50 [1]: ≥ 1000 nM
IC50 [2]: ≥ 1000 nM

Cc1cccnc1[C@@H]1CCC[C@H](c2nccn2CCc2ccccn2)N1 [I-177]
Papp A→B at 90 min, 10 μM (in vitro): 100 to 300 nm/s
Papp B→A at 90 min, 10 μM (in vitro): 100 to 300 nm/s
efflux ratio at 90 min, 10 μM (in vitro): 0.1 to 10
IC50 [1]: ≥ 1000 nM
IC50 [2]: ≥ 1000 nM

Cc1cccnc1[C@@H]1CCC[C@H](c2nccn2C2CCNCC2)N1C [I-179]
Papp A→B at 90 min, 10 μM (in vitro): 1 to 100 nm/s
Papp B→A at 90 min, 10 μM (in vitro): 100 to 300 nm/s
efflux ratio at 90 min, 10 μM (in vitro): 10 to 30
IC50 [1]: 0.01 to 100 nM
IC50 [2]: 100 to 1000 nM
